“And” between values parts separate entries of the source, which are not always exact repeats. Identical values can stand only once. Inconclusive results and toxic doses are left out.
System: P388 leukemia ip, CD2F1 mice, survival T/C
Assay: NCI In Vivo Anticancer Drug Screen. Data for tumor model P388 Leukemia (intraperitoneal) in CD2F1 (CDF1) mice
Details: endpoint: median survival time, higher = longer survival
Summary of the method: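 Mice carrying the transplanted tumor received test compound or vehicle. Survival was recorded in each group, and the value is the treated-group measurement divided by that of the vehicle-treated control group.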

[1] = dose: 100.0 mg/kg/injection, schedule: Q04DX003 (ip), vehicle: saline with Tween-80
[2] = dose: 200.0 mg/kg/injection, schedule: Q04DX003 (ip), vehicle: saline with Tween-80
[3] = dose: 400.0 mg/kg/injection, schedule: Q04DX003 (ip), vehicle: saline with Tween-80
[4] = dose: 50.0 mg/kg/injection, schedule: Q01DX005 (ip), vehicle: Klucel (hydroxypropylcellulose) (HPC)
[5] = dose: 100.0 mg/kg/injection, schedule: Q01DX005 (ip), vehicle: Klucel (hydroxypropylcellulose) (HPC)
[6] = dose: 200.0 mg/kg/injection, schedule: Q01DX005 (ip), vehicle: Klucel (hydroxypropylcellulose) (HPC)
[7] = dose: 25.0 mg/kg/injection, schedule: Q01DX005 (ip), vehicle: water
[8] = dose: 50.0 mg/kg/injection, schedule: Q01DX005 (ip), vehicle: water
[9] = dose: 100.0 mg/kg/injection, schedule: Q01DX005 (ip), vehicle: water
[10] = dose: 200.0 mg/kg/injection, schedule: Q01DX005 (ip), vehicle: water
[11] = dose: 400.0 mg/kg/injection, schedule: Q01DX005 (ip), vehicle: water
[12] = dose: 100.0 mg/kg/injection, schedule: Q01DX009 (ip), vehicle: saline
[13] = dose: 200.0 mg/kg/injection, schedule: Q01DX009 (ip), vehicle: saline
[14] = dose: 60.0 mg/kg/injection, schedule: Q01DX005 (ip), vehicle: Klucel (hydroxypropylcellulose) (HPC)
[15] = dose: 120.0 mg/kg/injection, schedule: Q01DX005 (ip), vehicle: Klucel (hydroxypropylcellulose) (HPC)
[16] = dose: 50.0 mg/kg/injection, schedule: Q01DX009 (ip), vehicle: saline
[17] = dose: 50.0 mg/kg/injection, schedule: Q01DX005 (ip), vehicle: saline with Tween-80
[18] = dose: 100.0 mg/kg/injection, schedule: Q01DX005 (ip), vehicle: saline with Tween-80
[19] = dose: 200.0 mg/kg/injection, schedule: Q01DX005 (ip), vehicle: saline with Tween-80

C=CCn1nc(-c2ccccc2)c(-c2ccccc2)n1
T/C [1]: 98 % of control
T/C [2]: 95 % of control
T/C [3]: 89 % of control

CCN(CC)C1CC(O[C@H]2C[C@](O)(C(=O)CO)Cc3c(O)c4c(c(O)c32)C(=O)c2c(OC)cccc2C4=O)OC(C)C1O (stereo partly drawn)
T/C (dose: 1.56 mg/kg/injection, schedule: Q01DX009 (ip), vehicle: water): 153 % of control
T/C (dose: 3.13 mg/kg/injection, schedule: Q01DX009 (ip), vehicle: water): 165 % of control and 178 % of control

O=C(c1ccccc1[N+](=O)[O-])C1OC1c1ccccc1 (stereo not drawn)
T/C [4]: 102 % of control
T/C [5]: 99 % of control
T/C [6]: 96 % of control

N=c1c2ncn(C3OC(CO)C(O)C3O)c2ncn1N (stereo not drawn)
T/C [7]: 110 % of control
T/C [8]: 107 % of control
T/C [9]: 105 % of control
T/C [10]: 98 % of control
T/C [11]: 108 % of control

C/C(=N\O)C(O)c1ccccc1 (stereo not drawn)
T/C [12]: 88 % of control
T/C [13]: 93 % of control
T/C (dose: 400.0 mg/kg/injection, schedule: Q01DX009 (ip), vehicle: saline): 100 % of control

CCOc1ccc(-n2c(O)c(N=Nc3ccccc3OC)sc2=S)cc1
T/C [4]: 97 % of control
T/C [5]: 93 % of control
T/C [6]: 95 % of control

OC(C(c1ccccc1)c1ccccn1)(C(F)(F)F)C(F)(F)F (stereo not drawn)
T/C [1]: 100 % of control
T/C [2]: 95 % of control
T/C [3]: 95 % of control

C=C1C(=O)C[C@H]2[C@H]3CC[C@H](C(=O)O)[C@]12CC3(C)C
T/C (dose: 7.5 mg/kg/injection, schedule: Q01DX005 (ip), vehicle: Klucel (hydroxypropylcellulose) (HPC)): 119 % of control
T/C (dose: 15.0 mg/kg/injection, schedule: Q01DX005 (ip), vehicle: Klucel (hydroxypropylcellulose) (HPC)): 113 % of control
T/C (dose: 30.0 mg/kg/injection, schedule: Q01DX005 (ip), vehicle: Klucel (hydroxypropylcellulose) (HPC)): 119 % of control
T/C (dose: 31.5 mg/kg/injection, schedule: Q01DX005 (ip), vehicle: Klucel (hydroxypropylcellulose) (HPC)): 111 % of control

CC(=O)Nc1ccc(/C=N/NC(=O)c2ccc(C)cc2)cc1
T/C (dose: 25.0 mg/kg/injection, schedule: Q01DX009 (ip), vehicle: saline with Tween-80): 103 % of control
T/C (dose: 50.0 mg/kg/injection, schedule: Q01DX009 (ip), vehicle: saline with Tween-80): 86 % of control

O=C1C=Cn2cc(-c3ccccc3)c(-c3ccccc3)c21
T/C [4]: 96 % of control
T/C [5]: 97 % of control
T/C [6]: 95 % of control

Cc1ccnc(C2=C(O)c3ccccc3C2=O)c1
T/C [4]: 102 % of control
T/C [5]: 90 % of control
T/C [6]: 91 % of control

CC1(C)SC(C)(c2ccco2)N(c2nccs2)C1=O (stereo not drawn)
T/C [14]: 104 % of control
T/C [15]: 104 % of control

CCOc1c(OC)cc(-c2n[nH]c(=O)o2)cc1OC
T/C (dose: 33.75 mg/kg/injection, schedule: Q01DX009 (ip), vehicle: Klucel (hydroxypropylcellulose) (HPC)): 90 % of control
T/C (dose: 67.5 mg/kg/injection, schedule: Q01DX009 (ip), vehicle: Klucel (hydroxypropylcellulose) (HPC)): 105 % of control
T/C (dose: 135.0 mg/kg/injection, schedule: Q01DX009 (ip), vehicle: Klucel (hydroxypropylcellulose) (HPC)): 99 % of control

CCOC(=O)C1n2c(=O)n(-c3ccc(Cl)cc3)c(=O)n21
T/C [4]: 96 % of control
T/C [5]: 87 % of control
T/C [6]: 92 % of control

Nc1n[nH]c(CO)n1
T/C (dose: 6.25 mg/kg/injection, schedule: Q01DX009 (ip), vehicle: saline): 95 % of control
T/C (dose: 12.5 mg/kg/injection, schedule: Q01DX009 (ip), vehicle: saline): 91 % of control
T/C (dose: 25.0 mg/kg/injection, schedule: Q01DX009 (ip), vehicle: saline): 104 % of control
T/C [16]: 99 % of control

O=C(NC(Cc1ccc(O)cc1)C(=O)NC(Cc1c[nH]c2ccccc12)C(=O)O)OCc1ccccc1 (stereo not drawn)
T/C [17]: 106 % of control
T/C [18]: 103 % of control
T/C [19]: 106 % of control

CCCC(=O)NC1C(Nc2ccc(S(=O)(=O)Nc3nc(C)cc(C)n3)cc2)OC(CO)C(O)C1O (stereo not drawn)
T/C (dose: 50.0 mg/kg/injection, schedule: Q01DX005 (ip), vehicle: saline): 97 % of control
T/C (dose: 100.0 mg/kg/injection, schedule: Q01DX005 (ip), vehicle: saline): 92 % of control
T/C (dose: 200.0 mg/kg/injection, schedule: Q01DX005 (ip), vehicle: saline): 99 % of control

CCOC(=O)C1CC(C)CC1=O (stereo not drawn)
T/C [16]: 96 % of control
T/C [12]: 98 % of control
T/C [13]: 102 % of control

O=c1[nH]c2ccccc2c2nc(-c3ccccc3)c3ccccc3c12
T/C [14]: 96 % of control
T/C [15]: 86 % of control
T/C (dose: 240.0 mg/kg/injection, schedule: Q01DX005 (ip), vehicle: Klucel (hydroxypropylcellulose) (HPC)): 91 % of control

O=C(CSc1nc(-c2ccccc2)c(-c2ccccc2)o1)N1CCOCC1
T/C (dose: 12.5 mg/kg/injection, schedule: Q01DX009 (ip), vehicle: Klucel (hydroxypropylcellulose) (HPC)): 105 % of control
T/C (dose: 25.0 mg/kg/injection, schedule: Q01DX009 (ip), vehicle: Klucel (hydroxypropylcellulose) (HPC)): 105 % of control
T/C (dose: 50.0 mg/kg/injection, schedule: Q01DX009 (ip), vehicle: Klucel (hydroxypropylcellulose) (HPC)): 106 % of control and 110 % of control
T/C (dose: 100.0 mg/kg/injection, schedule: Q01DX009 (ip), vehicle: Klucel (hydroxypropylcellulose) (HPC)): 107 % of control and 120 % of control
T/C (dose: 200.0 mg/kg/injection, schedule: Q01DX009 (ip), vehicle: Klucel (hydroxypropylcellulose) (HPC)): 110 % of control

Nc1ncnc2c1ncn2C1OC(COC(c2ccccc2)(c2ccccc2)c2ccccc2)C(O)C1O (stereo not drawn)
T/C [17]: 100 % of control
T/C [18]: 95 % of control
T/C [19]: 90 % of control

O=NN(CCF)C(=O)NC12CC3CC(CC(C3)C1)C2
T/C (dose: 22.0 mg/kg/injection, schedule: Q04DX003 (ip), vehicle: saline with Tween-80): 175 % of control
T/C (dose: 33.0 mg/kg/injection, schedule: Q04DX003 (ip), vehicle: saline with Tween-80): 195 % of control
T/C (dose: 50.0 mg/kg/injection, schedule: Q04DX003 (ip), vehicle: saline with Tween-80): 225 % of control
T/C (dose: 75.0 mg/kg/injection, schedule: Q04DX003 (ip), vehicle: saline with Tween-80): 240 % of control
T/C (dose: 100.0 mg/kg/injection, schedule: Q04DX003 (ip), vehicle: Klucel (hydroxypropylcellulose) (HPC)): 259 % of control

O=C1C=C(NC(=O)C(F)(F)F)C(=O)c2c1[nH]c(=O)[nH]c2=O
T/C (dose: 6.25 mg/kg/injection, schedule: Q01DX005 (ip), vehicle: DMSO): 109 % of control
T/C (dose: 12.5 mg/kg/injection, schedule: Q01DX005 (ip), vehicle: DMSO): 103 % of control
T/C (dose: 25.0 mg/kg/injection, schedule: Q01DX005 (ip), vehicle: DMSO): 103 % of control
T/C (dose: 50.0 mg/kg/injection, schedule: Q01DX005 (ip), vehicle: DMSO): 110 % of control
T/C (dose: 50.0 mg/kg/injection, schedule: Q01DX005 (ip), vehicle: other): 98 % of control
T/C (dose: 100.0 mg/kg/injection, schedule: Q01DX005 (ip), vehicle: other): 104 % of control
T/C (dose: 200.0 mg/kg/injection, schedule: Q01DX005 (ip), vehicle: other): 101 % of control

OC1OC2COC(c3ccccc3)OC2C(O)C1O (stereo not drawn)
T/C [7]: 100 % of control
T/C [8]: 100 % of control
T/C [9]: 100 % of control
T/C [10]: 101 % of control
T/C [11]: 107 % of control
T/C (dose: 800.0 mg/kg/injection, schedule: Q01DX005 (ip), vehicle: water): 95 % of control

COC1CCC2C(C1)C(C1CCCCC1)C1CCCCC1C2C1CCCCC1 (stereo not drawn)
T/C [17]: 96 % of control
T/C [18]: 93 % of control
T/C [19]: 95 % of control

C[CH2][Sn]([CH2]C)([O]S(C)(=O)=O)[O]S(C)(=O)=O
T/C (dose: 1.56 mg/kg/injection, schedule: Q04DX003 (ip), vehicle: saline): 114 % of control
T/C (dose: 6.25 mg/kg/injection, schedule: Q04DX003 (ip), vehicle: saline): 117 % of control and 118 % of control
T/C (dose: 12.5 mg/kg/injection, schedule: Q04DX003 (ip), vehicle: saline): 164 % of control

O=C(Nc1cccc(NC(=O)c2nn[nH]n2)n1)c1nn[nH]n1
T/C [4]: 105 % of control
T/C [5]: 105 % of control
T/C [6]: 99 % of control

From PubChem BioAssay AID330 (DTP/NCI, 2004)
